Assays:
[1] = oral administration; cited from earlier work
[2] = Particle size by Malvern light scattering technique; assay type: physicochemical; details: particle size of losartan active agent
Source text: “d (0.9)” denotes a particle size wherein 90% (volume) particles have diameter less than the specified diameter d.

[3] = Specific surface area by gas adsorption analyzer method (BET); assay type: physicochemical; details: losartan active agent
Source text: The results of our investigations have shown that it is advantageous to use losartan, with a particle size d (0.9) less than 50μ measured by Malvern light scattering technique, and/or a specific particle specific surface area more than 0.6 m^2/g measured by the Gas adsorption analyzer method (BET).

CCCCc1nc(Cl)c(CO)n1Cc1ccc(-c2ccccc2-c2nn[nH]n2)cc1 [losartan, Losartan]
systemic bioavailability [1]: approximately 33%

CCCCc1nc(Cl)c(CO)n1Cc1ccc(-c2ccccc2-c2nn[nH]n2)cc1 [B, Losartan Potassium]
d (0.1) [2]: d (0.1) = 1.806μ
d (0.5) [2]: d (0.5) = 24.812μ
d (0.9) [2]: d (0.9) = 53.931μ
Specific Surface Area [3]: Specific Surface Area = 0.4-0.5 m^2/g

CCCCc1nc(Cl)c(CO)n1Cc1ccc(-c2ccccc2-c2nn[nH]n2)cc1 [A, Losartan Potassium]
d (0.1) [2]: d (0.1) = 0.869μ
d (0.5) [2]: d (0.5) = 10.077μ
d (0.9) [2]: d (0.9) = 21.382μ
Specific Surface Area [3]: Specific Surface Area = 0.7-0.8 m^2/g
